Data reported in patent US6664397B1, “Use of (+)mefloquine for the treatment of malaria” (Vernalis Research Limited, priority 1997, dated 2003).

Experiments:
[1] = test system: travellers; conditions: 3851 travellers surveyed, prophylactic use; cited from earlier work
[2] = target: bovine striatal adenosine receptors (non-selective); conditions: displacement of [3H]-NECA
[3] = target: T1, human recombinant (HEK-293) adenosine A3 receptors (Homo sapiens, UniProt P0DMS8); conditions: comparative literature data for reference ligands; cited from earlier work
T1 construct: expressed in transfected cells; host or cells: HEK-293
T1 sequence (P0DMS8 1-318): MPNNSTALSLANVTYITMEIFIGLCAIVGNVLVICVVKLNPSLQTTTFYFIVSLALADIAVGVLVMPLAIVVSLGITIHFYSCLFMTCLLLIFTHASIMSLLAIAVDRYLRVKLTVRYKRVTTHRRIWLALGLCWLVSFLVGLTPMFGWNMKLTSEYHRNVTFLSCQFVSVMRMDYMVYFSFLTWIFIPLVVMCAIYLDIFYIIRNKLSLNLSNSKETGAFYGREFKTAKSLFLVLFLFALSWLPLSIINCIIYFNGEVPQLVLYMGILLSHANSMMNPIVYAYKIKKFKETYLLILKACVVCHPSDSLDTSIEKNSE

[4] = target: T2, adenosine A2A receptors endogenously expressed in PC-12 cells (Rattus norvegicus, UniProt P30543); experiment: Agonist-induced increase in extracellular acidification rate (ECAR) in PC-12 cells, cytosensor microphysiometer; assay type: cell-based
T2 construct: PC12 cells endogenously express adenosine A2A receptors; host or cells: PC-12 cells
T2 sequence (P30543 whole entry): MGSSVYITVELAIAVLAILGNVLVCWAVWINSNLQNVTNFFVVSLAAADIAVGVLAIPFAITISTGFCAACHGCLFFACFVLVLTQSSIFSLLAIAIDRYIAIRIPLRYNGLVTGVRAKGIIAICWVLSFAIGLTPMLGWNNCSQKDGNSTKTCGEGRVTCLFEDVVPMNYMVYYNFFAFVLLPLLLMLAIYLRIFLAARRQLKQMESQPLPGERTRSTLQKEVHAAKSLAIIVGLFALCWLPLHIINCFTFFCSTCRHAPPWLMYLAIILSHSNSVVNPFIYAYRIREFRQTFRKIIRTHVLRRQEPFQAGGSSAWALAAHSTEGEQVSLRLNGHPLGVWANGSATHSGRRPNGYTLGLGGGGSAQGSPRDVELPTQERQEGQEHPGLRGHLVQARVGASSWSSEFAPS
Procedure: PC-12 cells (purchased from ECACC) were maintained in RPMI 1640 media (Sigma) supplemented with 2 mM L-glutamine and 10% FCS in a controlled environment of 5% CO2, 95% humidity at 37° C.
On the day of the assay the cells were gently harvested and centrifuged at 700 RPM for 10 min. The supernatant was discarded and the pellet re-suspended to a final density of approx. 1×10^6 cells/ml in modified RPMI 1640 media. 600 μl of this suspension was mixed with 200 μl of molten agarose cell entrapment media (Molecular Devices) pre-incubated to 37° C. The cell suspension was returned to the incubator for a further 10 minutes for equilibration. 10 μl of this cell agarose suspension was spotted onto the middle of the capsule insert well and allowed to set before being placed in the sensor chambers in the cytosensor® microphysiometer. […]
Agonist concentration curves were constructed by exposing the cells to increasing concentrations of agonist for a total exposure time of approximately 1 min 53 sec. Agonist concentration curves in the presence of antagonists were performed following pre-incubation of the cells to the antagonists for at least 20 min prior to agonist exposure (in the presence of the fixed antagonist concentration) Baseline acidification rates were normalised to 100%, and all responses were calculated as a % increase over normalised baseline. […]

[5] = test system: mice; experiment: Potentiation of pentylenetetrazole-induced seizures (proconvulsant effect) in mice; conditions: 300 mg/kg p.o., 24 hrs after a single dose
[6] = test system: mice; experiment: Irwin screen of overt physiological and behavioral effects in mice; conditions: for reduced activity, unkempt appearance, hunched body posture (late effects): high dose, daily p.o. dosing, about five days
[7] = test system: Plasmodium falciparum; conditions: Karle et al. 1993; cited from earlier work

SMILES	Ki [2]	Ki [3]	reduced activity, unkempt appearance, hunched body posture (late effects) [6]	also measured
O[C@H](c1cc(C(F)(F)F)nc2c(C(F)(F)F)cccc12)[C@@H]1CCCCN1 (racemic) [mefloquine, (R*,S*)-(±)-α-2-Piperidinyl-2,8-bis(trifluoromethyl)-4-quinolinemethanol]				adverse neuropsychiatric events compared with proguanil plus chloroquine [1]: significant excess of adverse neuropsychiatric events
CNC(=O)[C@H]1O[C@@H](n2cnc3c(N)ncnc32)[C@H](O)[C@@H]1O [MECA, 5′-N-methylcarboxamidoadenosine, reference compound]	0.058 µM			
OC[C@H]1O[C@@H](n2cnc3c(NC4CCCCC4)ncnc32)[C@H](O)[C@@H]1O [CHA]		7.7 µM		
O[C@@H](c1cc(C(F)(F)F)nc2c(C(F)(F)F)cccc12)[C@H]1CCCCN1 [(−)-enantiomer, (−)-(11S,2′R)-α-2-piperidinyl-2,8-bis(trifluoromethyl)-4-quinolinemethanol]	0.083 µM		showed reduced activity, unkempt appearance and assumed a hunched body posture	effect on the CGS 21680-induced increase in ECAR ([4]; agonist CGS 21680, FIG. 6): specific to adenosine A2A receptors; effect on the NECA-induced increase in ECAR ([4]; agonist NECA, FIG. 5): binds to adenosine receptors as an antagonist; latency to onset of clonic seizures induced by infusion of pentylenetetrazole (PTZ) [5]: significantly reduced the latency to onset of clonic seizures; behavioral effects twenty-four hours after the first dose ([6]; 300 mg/kg p.o., 24 hours): difficult to handle and displayed aggression toward cage-mates; qualitative behavioral difference between the enantiomers ([6]; daily dosing 30, 100, 300 mg/kg p.o.): appearing more potent in eliciting spontaneous seizures, irritability and aggressiveness
O[C@H](c1cc(C(F)(F)F)nc2c(C(F)(F)F)cccc12)[C@@H]1CCCCN1 [(+)-enantiomer, (+)-(11R,2′S)-α-2-piperidinyl-2,8-bis(trifluoromethyl)-4-quinolinemethanol]	38 µM		these effects only became apparent after 5-6 days, and did not include seizures	factor by which the (+)-enantiomer was more potent than the (−)-enantiomer [7]: 1.69-1.81
Nc1nc(NCCc2ccc(O)cc2)nc2nc(-c3ccco3)nn12 [ZM241385]		151 µM		
